From patent US20240254118A1, “PRMT5 INHIBITORS AND USES THEREOF” (Gilead Sciences, Inc., priority 2022, published 2024)

How the values were obtained:
[1] = system: SDMA signal (PRMT5 inhibition) in HCT116 MTAP-deleted cells; assay: Symmetric di-methyl arginine image-based high content screen assay (SDMA assay), HCT116 MTAP-deleted; format: cell-based; details: SDMA assay; for EC50: Homo sapiens, HCT-116, 72 h, 3 days of treatment, cell line not given, taken as HCT116 MTAP-deleted, read-out: EC50 (SDMA assay); for EC50 selectivity (SDMA assay): taken as HCT116 WT versus MTAP-deleted
Method in brief: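 Read-out: per-cell mean SDMA immunofluorescence (Alexa Fluor 488 secondary), cells segmented by DAPI on a high-content imager. Compound exposure in HCT116 MTAP-deleted cells lasted until fixation on Day 3; overnight 4° C primary anti-SDMA antibody staining.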

[2] = system: HCT116 MTAP-deleted cells; assay: Cell viability assay (CellTiter-Glo, 7 days), HCT116 MTAP-deleted; details: Homo sapiens, HCT-116, 168 h

EC50 [1] | EC50 selectivity (SDMA assay) [1] | SMILES | CC50 [2]
1 to 5 nM | 51 | Cn1ncc2c(N)nc3ccc(C(=O)N(Cc4ccc(-c5cnn(C(F)(F)F)c5)cn4)N4CCCCC4=O)cc3c21 [Example 161, 4-amino-1-methyl-N-(2-oxopiperidin-1-yl)-N-((5-(1-(trifluoromethyl)-1H-pyrazol-4-yl)pyridin-2-yl)methyl)-1H-pyrazolo[4,3-c]quinoline-8-carboxamide] | < 100 nM
< 1 nM | 127 | CN(C(=O)C1CCC1)N(Cc1ccc(C(F)(F)F)nn1)C(=O)c1cc2c(cc1F)nc(N)c1cnn(C)c12 [Example 162, 4-amino-N′-(cyclobutanecarbonyl)-7-fluoro-N′,1-dimethyl-N-((6-(trifluoromethyl)pyridazin-3-yl)methyl)-1H-pyrazolo[4,3-c]quinoline-8-carbohydrazide] | < 100 nM
1 to 5 nM | 145 | CN(C(=O)c1ncccn1)N(Cc1ccc(C(F)(F)F)cn1)C(=O)c1ccc2nc(N)c3cnn(C)c3c2c1 [Example 163, 4-amino-N′,1-dimethyl-N′-(pyrimidine-2-carbonyl)-N-((5-(trifluoromethyl)pyridin-2-yl)methyl)-1H-pyrazolo[4,3-c]quinoline-8-carbohydrazide] | < 100 nM
1 to 5 nM | 163 | CC(=O)N(C)N(Cc1ccc2c(cnn2C)c1)C(=O)c1ccc2nc(N)c3cnn(C)c3c2c1 [Example 164, N′-acetyl-4-amino-N′,1-dimethyl-N-((1-methyl-1H-indazol-5-yl)methyl)-1H-pyrazolo[4,3-c]quinoline-8-carbohydrazide] | < 100 nM
< 1 nM | 11 | CN(C(=O)c1ncco1)N(Cc1ccc(C(F)(F)F)cc1F)C(=O)c1ccc2nc(N)c3cnn(C)c3c2c1 [Example 165, N′-(4-amino-1-methyl-1H-pyrazolo[4,3-c]quinoline-8-carbonyl)-N′-(2-fluoro-4-(trifluoromethyl)benzyl)-N-methyloxazole-2-carbohydrazide] | < 100 nM
< 1 nM | 21 | CN(C(=O)c1cocn1)N(Cc1ccc(C(F)(F)F)cc1F)C(=O)c1ccc2nc(N)c3cnn(C)c3c2c1 [Example 166, N′-(4-amino-1-methyl-1H-pyrazolo[4,3-c]quinoline-8-carbonyl)-N′-(2-fluoro-4-(trifluoromethyl)benzyl)-N-methyloxazole-4-carbohydrazide] | < 100 nM
< 1 nM | 10 | CC(=O)N(C)N(Cc1ccc(C(F)(F)F)cn1)C(=O)c1cc2c3c(c(N)nc2cc1F)[C@@H](C)OC3 [Example 167, (3R)—N′-acetyl-4-amino-7-fluoro-N′,3-dimethyl-N-[[5-(trifluoromethyl)-2-pyridyl]methyl]-1,3-dihydrofuro[3,4-c]quinoline-8-carbohydrazide] | < 100 nM
< 1 nM | 97 | CC(=O)N(C)N(Cc1ccc(C(F)(F)F)cn1)C(=O)c1ccc2nc(N)c3c(c2c1)COC3 [Example 168, N′-acetyl-4-amino-N′-methyl-N-[[5-(trifluoromethyl)-2-pyridyl]methyl]-1,3-dihydrofuro[3,4-c]quinoline-8-carbohydrazide] | < 100 nM
1 to 5 nM | 14 | Cn1ncc2c(N)nc3ccc(C(=O)N(Cc4nc5ccccc5s4)N4CCC(F)(F)C4=O)cc3c21 [Example 169, 4-amino-N-(1,3-benzothiazol-2-ylmethyl)-N-(3,3-difluoro-2-oxo-pyrrolidin-1-yl)-1-methyl-pyrazolo[4,3-c]quinoline-8-carboxamide] | < 100 nM
< 1 nM | 571 | Cn1ncc2c(N)nc3ccc(C(=O)N(Cc4ccc(C(F)(F)F)cn4)N4CCC(F)(F)C4=O)cc3c21 [Example 171, 4-amino-N-(3,3-difluoro-2-oxo-pyrrolidin-1-yl)-1-methyl-N-[[5-(trifluoromethyl)-2-pyridyl]methyl]pyrazolo[4,3-c]quinoline-8-carboxamide] | < 100 nM
1 to 5 nM | 153 | CN(CC1CCC1)N(Cc1ccc(C(F)(F)F)cn1)C(=O)c1ccc2nc(N)c3cnn(C)c3c2c1 [Example 172, 4-amino-N′-(cyclobutylmethyl)-N′,1-dimethyl-N-[[5-(trifluoromethyl)-2-pyridyl]methyl]pyrazolo[4,3-c]quinoline-8-carbohydrazide] | < 100 nM
< 1 nM | 117 | CN(CC1CC1)N(Cc1ccc(C(F)(F)F)cn1)C(=O)c1ccc2nc(N)c3cnn(C)c3c2c1 [Example 173, 4-amino-N′-(cyclopropylmethyl)-N′,1-dimethyl-N-[[5-(trifluoromethyl)-2-pyridyl]methyl]pyrazolo[4,3-c]quinoline-8-carbohydrazide] | < 100 nM
< 1 nM | 24 | CN(CC1CC1)N(Cc1ccc(C(F)(F)F)cn1)C(=O)c1cc2c(cc1F)nc(N)c1cnn(C)c12 [Example 174, 4-amino-N′-(cyclopropylmethyl)-7-fluoro-N′,1-dimethyl-N-[[5-(trifluoromethyl)-2-pyridyl]methyl]pyrazolo[4,3-c]quinoline-8-carbohydrazide] | < 100 nM
1 to 5 nM | 19 | CN(C(=O)c1ccnn1C)N(Cc1ccc(C(F)(F)F)cn1)C(=O)c1ccc2nc(N)c3cnn(C)c3c2c1 [Example 175, 4-amino-N′,1-dimethyl-N′-(1-methyl-1H-pyrazole-5-carbonyl)-N-((5-(trifluoromethyl)pyridin-2-yl)methyl)-1H-pyrazolo[4,3-c]quinoline-8-carbohydrazide] | < 100 nM
1 to 5 nM | 35 | CC(=O)N(C)N(Cc1ccc(C#CC(C)(C)S(C)(=O)=O)cc1F)C(=O)c1ccc2nc(N)c3cnn(C)c3c2c1 [Example 176, N′-acetyl-4-amino-N-(2-fluoro-4-(3-methyl-3-(methylsulfonyl)but-1-yn-1-yl)benzyl)-N′,1-dimethyl-1H-pyrazolo[4,3-c]quinoline-8-carbohydrazide] | 100 to 1000 nM
1 to 5 nM | 36 | CC(=O)N(C)N(Cc1ccc(C#CC2(C(F)F)CC2)cc1F)C(=O)c1ccc2nc(N)c3cnn(C)c3c2c1 [Example 177, N′-acetyl-4-amino-N-(4-((1-(difluoromethyl)cyclopropyl)ethynyl)-2-fluorobenzyl)-N′,1-dimethyl-1H-pyrazolo[4,3-c]quinoline-8-carbohydrazide] | < 100 nM

SMILES | EC50 [1] | EC50 selectivity (SDMA assay) [1] | CC50 [2]
Cn1ncc2c(N)nc3ccc(C(=O)N(Cc4ccc(C(F)(F)F)cn4)N4CC5(CC5)CC4=O)cc3c21 [Example 170, 4-amino-1-methyl-N-(6-oxo-5-azaspiro[2.4]heptan-5-yl)-N-((5-(trifluoromethyl)pyridin-2-yl)methyl)-1H-pyrazolo[4,3-c]quinoline-8-carboxamide] | < 1 nM | 146 | < 100 nM
